{"source": "patent US11799117B2", "about": "“Flow batteries incorporating a nitroxide compound within an aqueous electrolyte solution” (LOCKHEED MARTIN ENERGY, LLC, priority 2016, dated 2023)", "assay_type_in_all_cases": "physicochemical", "key": {"[1]": {"assay": "Reduction potential versus a saturated calomel electrode", "from_the_text": "(§1) First, it has a reduction potential of approximately 0.6 V versus a saturated calomel electrode, which is desirably higher than that of iron hexacyanide coordination compounds (increase of 0.25 V)."}, "[2]": {"assay": "Conductivity of aqueous solution", "conditions": "1 M aqueous solution, pH 11, absence of other electrolytes", "from_the_text": "as §1"}, "Aqueous solubility": {"assay": "Aqueous solubility", "from_the_text": "as §1"}, "[3]": {"assay": "Electrochemical kinetics by cyclic voltammetry", "conditions": "also in alkaline aqueous electrolyte solutions; substantially reversible = anodic/cathodic peak difference less than about 0.3 V", "from_the_text": "The high positive half-cell reduction potentials can provide significant advantages when incorporated in flow batteries, particularly in comparison to the commonly used iron hexacyanide coordination compounds. The high positive reduction potential can allow improved open circuit potential, voltage efficiency and current efficiency values to be realized. In addition, the improved solubility of many nitroxide compounds compared to iron hexacyanide coordination compounds allows improved energy density values to be realized.\nThe nitroxide compound defined by Structure 12 has the chemical name [2,2,6,6-tetramethyl-4-(sulfooxy)piperidin-1-yl]oxidanyl (also referred to herein as TEMPOSO). Without being bound by any theory or mechanism, it is believed that the sulfate (sulfooxy) group can stabilize the nitroxide group when the six-membered ring is in its “boat”, configuration. […] Under alkaline aqueous solutions, the deprotonated anionic form of Structure 12 can be stabilized after oxidation of the radical through lone pair donation from the sulfooxy group to the resulting nitrogen-centered cation.\nas §1"}}}
{"substance": "[2,2,6,6-tetramethyl-4-(sulfooxy)piperidin-1-yl]oxidanyl [TEMPOSO]", "values": [{"measurement": "increase of reduction potential over iron hexacyanide coordination compounds", "setting": "[1]", "result": 0.25, "unit": "V"}, {"measurement": "reduction potential", "setting": "[1]", "result": "approximately 0.6 V"}, {"measurement": "conductivity", "setting": "[2]", "result": "about 50 mS/cm"}, {"measurement": "aqueous solubility", "setting": "Aqueous solubility", "result": "≥ 1800", "unit": "mM"}, {"measurement": "electrochemical kinetics", "setting": "[3]", "result": "substantially reversible"}]}
